# Earlier results in PMC9516332 (Frontiers in Oncology, 2022).
# Like-named read-outs stand apart in the source and are kept apart here.
# Assays:
# Details in all cases: cited from earlier work
# [1] = biological target: T1, panel of 255 wild-type kinases (Homo sapiens, UniProt O60285)
# T1 sequence (O60285 1-661): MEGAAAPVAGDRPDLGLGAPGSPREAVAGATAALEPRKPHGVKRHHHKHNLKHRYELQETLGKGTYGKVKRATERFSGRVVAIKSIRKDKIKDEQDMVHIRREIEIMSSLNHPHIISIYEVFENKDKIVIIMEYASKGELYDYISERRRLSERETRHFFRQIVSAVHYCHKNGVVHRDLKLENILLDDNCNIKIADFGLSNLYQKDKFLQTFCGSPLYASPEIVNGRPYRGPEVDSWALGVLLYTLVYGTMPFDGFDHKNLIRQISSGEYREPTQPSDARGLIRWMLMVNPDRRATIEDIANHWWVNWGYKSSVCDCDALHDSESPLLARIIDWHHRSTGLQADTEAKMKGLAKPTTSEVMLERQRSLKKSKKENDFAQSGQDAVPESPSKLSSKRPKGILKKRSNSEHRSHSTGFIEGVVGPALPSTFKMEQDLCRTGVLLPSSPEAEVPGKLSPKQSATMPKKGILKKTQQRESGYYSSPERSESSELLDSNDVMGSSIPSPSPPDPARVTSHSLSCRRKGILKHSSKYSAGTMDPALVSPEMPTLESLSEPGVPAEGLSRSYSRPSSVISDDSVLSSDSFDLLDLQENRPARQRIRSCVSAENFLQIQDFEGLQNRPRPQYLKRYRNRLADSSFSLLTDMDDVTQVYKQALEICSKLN
# [2] = biological target: panel of 255 wild-type kinases (Homo sapiens, UniProt P22455)
# [3] = biological target: panel of 255 wild-type kinases (Homo sapiens, UniProt P35916)
# [4] = biological target: panel of 255 wild-type kinases (Homo sapiens, UniProt Q05397)
# [5] = biological target: panel of 255 wild-type kinases (Homo sapiens, UniProt Q14680)
# [6] = biological target: panel of 255 wild-type kinases (Homo sapiens, UniProt Q16816)
# [7] = biological target: panel of 255 wild-type kinases (Homo sapiens, UniProt Q9H4A3)
# [8] = biological target: T2, panel of 255 wild-type kinases (Homo sapiens, UniProt Q9NRM7)
# T2 sequence (Q9NRM7 1-1088): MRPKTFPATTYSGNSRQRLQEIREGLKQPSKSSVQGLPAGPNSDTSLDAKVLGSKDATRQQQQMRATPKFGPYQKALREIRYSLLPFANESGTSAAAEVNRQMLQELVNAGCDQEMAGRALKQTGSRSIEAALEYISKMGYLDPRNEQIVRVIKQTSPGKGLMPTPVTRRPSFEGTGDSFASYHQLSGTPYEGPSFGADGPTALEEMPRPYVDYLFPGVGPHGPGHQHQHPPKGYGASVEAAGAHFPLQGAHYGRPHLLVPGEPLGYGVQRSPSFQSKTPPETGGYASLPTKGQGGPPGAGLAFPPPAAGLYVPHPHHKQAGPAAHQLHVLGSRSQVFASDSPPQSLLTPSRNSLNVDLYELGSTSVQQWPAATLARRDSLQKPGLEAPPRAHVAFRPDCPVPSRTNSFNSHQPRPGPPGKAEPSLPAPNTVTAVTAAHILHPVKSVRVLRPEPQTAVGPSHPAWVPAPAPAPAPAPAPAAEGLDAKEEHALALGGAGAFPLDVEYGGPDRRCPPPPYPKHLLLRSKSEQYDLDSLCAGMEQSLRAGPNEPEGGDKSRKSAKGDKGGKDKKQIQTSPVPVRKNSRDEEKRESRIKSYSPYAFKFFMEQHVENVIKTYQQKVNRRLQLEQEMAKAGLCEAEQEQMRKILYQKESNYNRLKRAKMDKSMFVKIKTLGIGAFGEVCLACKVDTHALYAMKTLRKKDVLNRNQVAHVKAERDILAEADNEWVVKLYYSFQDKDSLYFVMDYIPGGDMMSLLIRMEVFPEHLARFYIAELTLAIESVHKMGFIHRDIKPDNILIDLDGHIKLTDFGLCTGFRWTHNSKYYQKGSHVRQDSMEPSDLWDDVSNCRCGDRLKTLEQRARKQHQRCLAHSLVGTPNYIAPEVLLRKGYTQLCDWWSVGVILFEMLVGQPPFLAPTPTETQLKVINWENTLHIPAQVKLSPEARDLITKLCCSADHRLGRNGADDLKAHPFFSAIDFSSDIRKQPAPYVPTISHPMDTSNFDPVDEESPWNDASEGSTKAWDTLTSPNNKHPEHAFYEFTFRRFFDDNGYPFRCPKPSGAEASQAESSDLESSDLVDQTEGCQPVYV
# [9] = NuaK1, 1 µmol/L single concentration, ref DOI: 10.1371/journal.pone.0092146
# [10] = kinase FGFR4, 1 µmol/L single concentration, ref DOI: 10.1371/journal.pone.0092146
# [11] = kinase FLT4, 1 µmol/L single concentration, ref DOI: 10.1371/journal.pone.0092146
# [12] = kinase FAK, 1 µmol/L single concentration, ref DOI: 10.1371/journal.pone.0092146
# [13] = MELK, 1 µmol/L single concentration, ref DOI: 10.1371/journal.pone.0092146
# [14] = kinase PHKG1, 1 µmol/L single concentration, ref DOI: 10.1371/journal.pone.0092146
# [15] = kinase WNK1, 1 µmol/L single concentration, ref DOI: 10.1371/journal.pone.0092146
# [16] = kinase LATS2, 1 µmol/L single concentration, ref DOI: 10.1371/journal.pone.0092146
# [17] = NuaK1, 1 µmol/L single concentration, ref DOI: 10.1158/1535-7163.MCT-18-0877
# [18] = kinase FGFR4, 1 µmol/L single concentration, ref DOI: 10.1158/1535-7163.MCT-18-0877
# [19] = kinase FLT4, 1 µmol/L single concentration, ref DOI: 10.1158/1535-7163.MCT-18-0877
# [20] = kinase FAK, 1 µmol/L single concentration, ref DOI: 10.1158/1535-7163.MCT-18-0877
# [21] = MELK, 1 µmol/L single concentration, ref DOI: 10.1158/1535-7163.MCT-18-0877
# [22] = kinase PHKG1, 1 µmol/L single concentration, ref DOI: 10.1158/1535-7163.MCT-18-0877
# [23] = kinase WNK1, 1 µmol/L single concentration, ref DOI: 10.1158/1535-7163.MCT-18-0877
# [24] = kinase LATS2, 1 µmol/L single concentration, ref DOI: 10.1158/1535-7163.MCT-18-0877
Compound,"%-inhibition, NuaK1 [1, 9]","%-inhibition at 1 µmol/L, FGFR4 [2, 10]","%-inhibition at 1 µmol/L, FLT4 [3, 11]","%-inhibition at 1 µmol/L, FAK [4, 12]","%-inhibition, MELK [5, 13]","%-inhibition at 1 µmol/L, PHKG1 [6, 14]","%-inhibition at 1 µmol/L, WNK1 [7, 15]","%-inhibition at 1 µmol/L, LATS2 [8, 16]","%-inhibition, NuaK1 [1, 17]","%-inhibition at 1 µmol/L, FGFR4 [2, 18]","%-inhibition at 1 µmol/L, FLT4 [3, 19]","%-inhibition at 1 µmol/L, FAK [4, 20]","%-inhibition, MELK [5, 21]","%-inhibition at 1 µmol/L, PHKG1 [6, 22]","%-inhibition at 1 µmol/L, WNK1 [7, 23]","%-inhibition at 1 µmol/L, LATS2 [8, 24]",other results
CCCS(=O)(=O)Nc1ccc(F)c(C(=O)c2c[nH]c3ncc(-c4ccc(Cl)cc4)cc23)c1F [vemurafenib],4%,5%,24%,-3.55%,4%,-0.913%,10%,-2.28%,–,–,–,–,–,–,–,–,–
CC(=O)Nc1cccc(-n2c(=O)n(C3CC3)c(=O)c3c(Nc4ccc(I)cc4F)n(C)c(=O)c(C)c32)c1 [trametinib],-0.634%,-3%,1.51%,-2.41%,-0.588%,-2.24%,-1.42%,1.87%,–,–,–,–,–,–,–,–,–
CCc1cc2c(cc1N1CCC(N3CCOCC3)CC1)C(C)(C)c1[nH]c3cc(C#N)ccc3c1C2=O [alectinib],–,–,–,–,–,–,–,–,-19%,4%,39%,17%,29%,78%,6%,1.69%,–
CC(C)(C)c1nc(-c2cccc(NS(=O)(=O)c3c(F)cccc3F)c2F)c(-c2ccnc(N)n2)s1 [dabrafenib],7%,19%,85%,13%,82%,-0.59%,1.14%,0.57%,–,–,–,–,–,–,–,–,–
CC#CC(=O)N1CCC[C@H]1c1nc(-c2ccc(C(=O)Nc3ccccn3)cc2)c2c(N)nccn12 [acalabrutinib],–,–,–,–,–,–,–,–,-3.51%,-9%,1.41%,-1.39%,-0.54%,-4%,5.36%,-7.45%,–
O=C(c1ccc(F)c(F)c1Nc1ccc(I)cc1F)N1CC(O)([C@@H]2CCCCN2)C1 [cobimetinib],–,–,–,–,–,–,–,–,2.32%,-0.0569%,-6%,-4%,2.53%,3%,-0.124%,1.46%,–
C=CC(=O)Nc1cc(Nc2nccc(-c3cn(C)c4ccccc34)n2)c(OC)cc1N(C)CCN(C)C [osimertinib],–,–,–,–,–,–,–,–,48%,11%,40%,81%,2.22%,38%,-1.88%,5%,–
Cc1cc(Nc2ncc(Cl)c(Nc3ccccc3S(=O)(=O)C(C)C)n2)c(OC(C)C)cc1C1CCNCC1 [ceritinib],–,–,–,–,–,–,–,–,17%,69%,75%,100%,4.5%,91%,4.45%,2.29%,–
CO[C@@H]1[C@H](N(C)C(=O)c2ccccc2)C[C@H]2O[C@]1(C)n1c3ccccc3c3c4c(c5c6ccccc6n2c5c31)C(=O)NC4 [midostaurin],–,–,–,–,–,–,–,–,101%,38%,99%,28%,95%,97%,5.36%,86%,–
COc1cc(N2CCC(N3CCN(C)CC3)CC2)ccc1Nc1ncc(Cl)c(Nc2ccccc2P(C)(C)=O)n1 [brigatinib],–,–,–,–,–,–,–,–,–,–,–,–,–,–,–,–,"%-inhibition, NuaK1 [1]: 90%; %-inhibition at 1 µmol/L, FGFR4 [2]: 82%; %-inhibition at 1 µmol/L, FLT4 [3]: 99%; %-inhibition at 1 µmol/L, FAK [4]: 99%; %-inhibition, MELK [5]: 49%; %-inhibition at 1 µmol/L, PHKG1 [6]: 96%; %-inhibition at 1 µmol/L, WNK1 [7]: 5%; %-inhibition at 1 µmol/L, LATS2 [8]: 49%"
C=CC(=O)N1CCC[C@@H](n2nc(-c3ccc(Oc4ccccc4)cc3)c3c(N)ncnc32)C1 [ibrutinib],–,–,–,–,–,–,–,–,7%,37%,91%,5%,8%,1.53%,2.3%,5.45%,–
C[C@@H](Oc1cc(-c2cnn(C3CCNCC3)c2)cnc1N)c1c(Cl)ccc(F)c1Cl [crizotinib],99%,0%,48%,90%,5.47%,2.74%,-3%,-6%,–,–,–,–,–,–,–,–,–
